Assays:
Assay in all cases: Post-emergence efficacy, glasshouse pot test
Format in all cases: in vivo
Settings in all cases: post-emergence application at 1000 g/ha; evaluated after 13 days; five point scale
[1] = system: Alopecurus myosuroides (ALOMY)
Protocol: (§1) B1 Post-emergence Efficacy Seeds of a variety of test species are sown in standard soil in pots:—Solanum nigrum (SOLNI), Amaranthus retoflexus (AMARE), Setaria faberi (SETFA), Alopecurus myosuroides (ALOMY), Echinochloa crus-galli (ECHCG), Ipomoea hederacea (IPOHE). After 8 days cultivation (post-emergence) under controlled conditions in a glasshouse (at 24/16° C., day/night; 14 hours light; 65% humidity), the plants are sprayed with an aqueous spray solution derived from the formulation of the technical active ingredient in acetone/water (50:50) solution containing 0.5% Tween 20 (polyoxyethelyene sorbitan monolaurate, CAS RN 9005-64-5). Compounds are applied at 1000 g/ha. The test plants are then grown in a glasshouse under controlled conditions in a glasshouse (at 24/16° C., day/night; 14 hours light; 65% humidity) and watered twice daily. After 13 days, the test is evaluated for the percentage damage caused to the plant. The biological activities are shown below in Table 13, on a five point scale (5=80-100%; 4=60-79%; 3=40-59%; 2=20-39%; 1=0-19%).

[2] = system: Setaria faberi (SETFA)
Protocol: as §1

[3] = system: Solanum nigrum (SOLNI)
Protocol: as §1

[4] = system: Ipomoea hederacea (IPOHE)
Protocol: as §1

[5] = system: Echinochloa crus-galli (ECHCG)
Protocol: as §1

[6] = system: Amaranthus retoflexus (AMARE)
Protocol: as §1

## C#CCn1c(=O)c(-c2c(Cl)ccc(Cl)c2OCc2ccccc2)c(O)c2nccnc21 [Compound 2.008]
[1]
  percentage damage caused to the plant, ALOMY: 5 (5=80-100%)
[2]
  percentage damage caused to the plant, SETFA: 5 (5=80-100%)
[3]
  percentage damage caused to the plant, SOLNI: 5 (5=80-100%)
[4]
  percentage damage caused to the plant, IPOHE: 5 (5=80-100%)
[5]
  percentage damage caused to the plant, ECHCG: 5 (5=80-100%)
[6]
  percentage damage caused to the plant, AMARE: 5 (5=80-100%)

## CC(C)C(=O)Oc1c(-c2c(Cl)ccc(Cl)c2OCc2ccc(C(F)(F)F)cc2)c(=O)n(CC(F)F)c2ncccc12 [Compound 3.006]
[1]
  percentage damage caused to the plant, ALOMY: 1 (1=0-19%)
[2]
  percentage damage caused to the plant, SETFA: 1 (1=0-19%)
[3]
  percentage damage caused to the plant, SOLNI: 5 (5=80-100%)
[4]
  percentage damage caused to the plant, IPOHE: 5 (5=80-100%)
[5]
  percentage damage caused to the plant, ECHCG: 1 (1=0-19%)
[6]
  percentage damage caused to the plant, AMARE: 5 (5=80-100%)

## C#CCn1c(=O)c(-c2c(F)ccc(Cl)c2OCc2ccccc2)c(O)c2nccnc21 [Compound 6.003]
[1]
  percentage damage caused to the plant, ALOMY: 4 (4=60-79%)
[2]
  percentage damage caused to the plant, SETFA: 5 (5=80-100%)
[3]
  percentage damage caused to the plant, SOLNI: 5 (5=80-100%)
[4]
  percentage damage caused to the plant, IPOHE: 5 (5=80-100%)
[5]
  percentage damage caused to the plant, ECHCG: 4 (4=60-79%)
[6]
  percentage damage caused to the plant, AMARE: 5 (5=80-100%)

## O=c1c(-c2c(F)ccc(Cl)c2OCc2ccccc2)c(O)c2cccnc2n1CC(F)F [Compound 8.001]
[1]
  percentage damage caused to the plant, ALOMY: 3 (3=40-59%)
[2]
  percentage damage caused to the plant, SETFA: 1 (1=0-19%)
[3]
  percentage damage caused to the plant, SOLNI: 5 (5=80-100%)
[4]
  percentage damage caused to the plant, IPOHE: 5 (5=80-100%)
[5]
  percentage damage caused to the plant, ECHCG: 3 (3=40-59%)
[6]
  percentage damage caused to the plant, AMARE: 5 (5=80-100%)

## COc1ccnc2c1c(OC(C)=O)c(-c1c(F)ccc(Cl)c1OCc1ccccc1)c(=O)n2CC(F)F [Compound 7.002]
[1]
  percentage damage caused to the plant, ALOMY: 4 (4=60-79%)
[2]
  percentage damage caused to the plant, SETFA: 5 (5=80-100%)
[3]
  percentage damage caused to the plant, SOLNI: 5 (5=80-100%)
[4]
  percentage damage caused to the plant, IPOHE: 5 (5=80-100%)
[5]
  percentage damage caused to the plant, ECHCG: 5 (5=80-100%)
[6]
  percentage damage caused to the plant, AMARE: 5 (5=80-100%)

## C#CCn1c(=O)c(-c2c(Cl)ccc(Cl)c2OCc2ccc(Cl)cc2)c(O)c2cccnc21 [Compound 2.003]
[1]
  percentage damage caused to the plant, ALOMY: 3 (3=40-59%)
[2]
  percentage damage caused to the plant, SETFA: 4 (4=60-79%)
[3]
  percentage damage caused to the plant, SOLNI: 5 (5=80-100%)
[4]
  percentage damage caused to the plant, IPOHE: 5 (5=80-100%)
[5]
  percentage damage caused to the plant, ECHCG: 5 (5=80-100%)
[6]
  percentage damage caused to the plant, AMARE: 5 (5=80-100%)

## C#CCn1c(=O)c(-c2c(Cl)ccc(Cl)c2OCc2ccccc2)c(O)c2cccnc21 [Compound 2.001, 3-(2-Benzyloxy-3,6-dichloro-phenyl)-4-hydroxy-1-prop-2-ynyl-1,8-naphthyridin-2-one]
[1]
  percentage damage caused to the plant, ALOMY: 5 (5=80-100%)
[2]
  percentage damage caused to the plant, SETFA: 5 (5=80-100%)
[3]
  percentage damage caused to the plant, SOLNI: 5 (5=80-100%)
[4]
  percentage damage caused to the plant, IPOHE: 5 (5=80-100%)
[5]
  percentage damage caused to the plant, ECHCG: 5 (5=80-100%)
[6]
  percentage damage caused to the plant, AMARE: 5 (5=80-100%)

## C#CCn1c(=O)c(-c2c(Cl)ccc(Cl)c2OCc2ccc(C)cc2)c(OC(=O)C(C)C)c2cccnc21 [Compound 1.004]
[1]
  percentage damage caused to the plant, ALOMY: 1 (1=0-19%)
[2]
  percentage damage caused to the plant, SETFA: 1 (1=0-19%)
[3]
  percentage damage caused to the plant, SOLNI: 5 (5=80-100%)
[4]
  percentage damage caused to the plant, IPOHE: 3 (3=40-59%)
[5]
  percentage damage caused to the plant, ECHCG: 3 (3=40-59%)
[6]
  percentage damage caused to the plant, AMARE: 5 (5=80-100%)

## C#CCn1c(=O)c(-c2c(Cl)ccc(Cl)c2OCc2ccccc2)c(OC(=O)C(C)C)c2nccnc21 [Compound 1.008]
[1]
  percentage damage caused to the plant, ALOMY: 5 (5=80-100%)
[2]
  percentage damage caused to the plant, SETFA: 5 (5=80-100%)
[3]
  percentage damage caused to the plant, SOLNI: 5 (5=80-100%)
[4]
  percentage damage caused to the plant, IPOHE: 5 (5=80-100%)
[5]
  percentage damage caused to the plant, ECHCG: 5 (5=80-100%)
[6]
  percentage damage caused to the plant, AMARE: 5 (5=80-100%)

## O=c1c(-c2c(Cl)ccc(Cl)c2OCc2ccccc2)c(O)c2nccnc2n1CC(F)F [Compound 4.008]
[1]
  percentage damage caused to the plant, ALOMY: 4 (4=60-79%)
[2]
  percentage damage caused to the plant, SETFA: 5 (5=80-100%)
[3]
  percentage damage caused to the plant, SOLNI: 5 (5=80-100%)
[4]
  percentage damage caused to the plant, IPOHE: 5 (5=80-100%)
[5]
  percentage damage caused to the plant, ECHCG: 5 (5=80-100%)
[6]
  percentage damage caused to the plant, AMARE: 5 (5=80-100%)

## COc1ccnc2c1c(O)c(-c1c(Cl)ccc(Cl)c1OCc1ccccc1)c(=O)n2CC(F)F [Compound 4.007]
[1]
  percentage damage caused to the plant, ALOMY: 3 (3=40-59%)
[2]
  percentage damage caused to the plant, SETFA: 2 (2=20-39%)
[3]
  percentage damage caused to the plant, SOLNI: 5 (5=80-100%)
[4]
  percentage damage caused to the plant, IPOHE: 5 (5=80-100%)
[5]
  percentage damage caused to the plant, ECHCG: 3 (3=40-59%)
[6]
  percentage damage caused to the plant, AMARE: 5 (5=80-100%)

## C#CCn1c(=O)c(-c2c(Cl)ccc(Cl)c2OCc2ccccc2)c(OC(=O)C(C)C)c2c(OC)ccnc21 [Compound 1.007]
[1]
  percentage damage caused to the plant, ALOMY: 1 (1=0-19%)
[2]
  percentage damage caused to the plant, SETFA: 1 (1=0-19%)
[3]
  percentage damage caused to the plant, SOLNI: 4 (4=60-79%)
[4]
  percentage damage caused to the plant, IPOHE: 1 (1=0-19%)
[5]
  percentage damage caused to the plant, ECHCG: 1 (1=0-19%)
[6]
  percentage damage caused to the plant, AMARE: 4 (4=60-79%)

## C#CCn1c(=O)c(-c2cccc(Cl)c2OCc2ccccc2)c(OC(=O)C(C)C)c2nccnc21 [Compound 9.003]
[1]
  percentage damage caused to the plant, ALOMY: 2 (2=20-39%)
[2]
  percentage damage caused to the plant, SETFA: 5 (5=80-100%)
[3]
  percentage damage caused to the plant, SOLNI: 5 (5=80-100%)
[4]
  percentage damage caused to the plant, IPOHE: 5 (5=80-100%)
[5]
  percentage damage caused to the plant, ECHCG: 5 (5=80-100%)
[6]
  percentage damage caused to the plant, AMARE: 4 (4=60-79%)

## CC(C)C(=O)Oc1c(-c2cccc(Cl)c2OCc2ccccc2)c(=O)n(CC(F)F)c2nccnc12 [Compound 11.003]
[1]
  percentage damage caused to the plant, ALOMY: 2 (2=20-39%)
[2]
  percentage damage caused to the plant, SETFA: 5 (5=80-100%)
[3]
  percentage damage caused to the plant, SOLNI: 5 (5=80-100%)
[4]
  percentage damage caused to the plant, IPOHE: 5 (5=80-100%)
[5]
  percentage damage caused to the plant, ECHCG: 5 (5=80-100%)
[6]
  percentage damage caused to the plant, AMARE: 5 (5=80-100%)

## O=c1c(-c2c(Cl)ccc(Cl)c2OCc2ccc(C(F)(F)F)cc2)c(O)c2cccnc2n1CC(F)F [Compound 4.006]
[1]
  percentage damage caused to the plant, ALOMY: 2 (2=20-39%)
[2]
  percentage damage caused to the plant, SETFA: 2 (2=20-39%)
[3]
  percentage damage caused to the plant, SOLNI: 5 (5=80-100%)
[4]
  percentage damage caused to the plant, IPOHE: 5 (5=80-100%)
[5]
  percentage damage caused to the plant, ECHCG: 2 (2=20-39%)
[6]
  percentage damage caused to the plant, AMARE: 5 (5=80-100%)

## CC(C)C(=O)Oc1c(-c2c(F)ccc(Cl)c2OCc2ccccc2)c(=O)n(CC(F)F)c2nccnc12 [Compound 7.003]
[1]
  percentage damage caused to the plant, ALOMY: 2 (2=20-39%)
[2]
  percentage damage caused to the plant, SETFA: 5 (5=80-100%)
[3]
  percentage damage caused to the plant, SOLNI: 5 (5=80-100%)
[4]
  percentage damage caused to the plant, IPOHE: 5 (5=80-100%)
[5]
  percentage damage caused to the plant, ECHCG: 2 (2=20-39%)
[6]
  percentage damage caused to the plant, AMARE: 5 (5=80-100%)

## CC(C)C(=O)Oc1c(-c2c(Cl)ccc(Cl)c2OCc2ccc(Cl)cc2)c(=O)n(CC(F)F)c2ncccc12 [Compound 3.003]
[1]
  percentage damage caused to the plant, ALOMY: 1 (1=0-19%)
[2]
  percentage damage caused to the plant, SETFA: 1 (1=0-19%)
[3]
  percentage damage caused to the plant, SOLNI: 5 (5=80-100%)
[4]
  percentage damage caused to the plant, IPOHE: 5 (5=80-100%)
[5]
  percentage damage caused to the plant, ECHCG: 1 (1=0-19%)
[6]
  percentage damage caused to the plant, AMARE: 5 (5=80-100%)

## C#CCn1c(=O)c(-c2c(F)ccc(Cl)c2OCc2ccccc2)c(O)c2cccnc21 [Compound 6.001]
[1]
  percentage damage caused to the plant, ALOMY: 3 (3=40-59%)
[2]
  percentage damage caused to the plant, SETFA: 2 (2=20-39%)
[3]
  percentage damage caused to the plant, SOLNI: 5 (5=80-100%)
[4]
  percentage damage caused to the plant, IPOHE: 5 (5=80-100%)
[5]
  percentage damage caused to the plant, ECHCG: 4 (4=60-79%)
[6]
  percentage damage caused to the plant, AMARE: 5 (5=80-100%)

## O=c1c(-c2cccc(Cl)c2OCc2ccccc2)c(O)c2nccnc2n1CC(F)F [Compound 12.003]
[1]
  percentage damage caused to the plant, ALOMY: 2 (2=20-39%)
[2]
  percentage damage caused to the plant, SETFA: 5 (5=80-100%)
[3]
  percentage damage caused to the plant, SOLNI: 5 (5=80-100%)
[4]
  percentage damage caused to the plant, IPOHE: 5 (5=80-100%)
[5]
  percentage damage caused to the plant, ECHCG: 5 (5=80-100%)
[6]
  percentage damage caused to the plant, AMARE: 5 (5=80-100%)

## COc1ccnc2c1c(O)c(-c1c(F)ccc(Cl)c1OCc1ccccc1)c(=O)n2CC(F)F [Compound 8.002]
[1]
  percentage damage caused to the plant, ALOMY: 4 (4=60-79%)
[2]
  percentage damage caused to the plant, SETFA: 4 (4=60-79%)
[3]
  percentage damage caused to the plant, SOLNI: 5 (5=80-100%)
[4]
  percentage damage caused to the plant, IPOHE: 5 (5=80-100%)
[5]
  percentage damage caused to the plant, ECHCG: 4 (4=60-79%)
[6]
  percentage damage caused to the plant, AMARE: 5 (5=80-100%)

## C#CCn1c(=O)c(-c2c(Cl)ccc(Cl)c2OCc2ccc(Cl)cc2)c(OC(=O)C(C)C)c2cccnc21 [Compound 1.003]
[1]
  percentage damage caused to the plant, ALOMY: 1 (1=0-19%)
[2]
  percentage damage caused to the plant, SETFA: 3 (3=40-59%)
[3]
  percentage damage caused to the plant, SOLNI: 5 (5=80-100%)
[4]
  percentage damage caused to the plant, IPOHE: 5 (5=80-100%)
[5]
  percentage damage caused to the plant, ECHCG: 4 (4=60-79%)
[6]
  percentage damage caused to the plant, AMARE: 5 (5=80-100%)
